# According to PubChem BioAssay AID1259407 (Chemical Carcinogenesis Research Information System (CCRIS), 2018):
# Active and inactive are the calls of the source. No rule for the calls is given here.
# Test system: CCRIS mutagenicity, Ames/micronucleus/aberration tests
# Test: CCRIS mutagenicity studies
smiles,measurement,setting,value
Nc1ccc2cc3ccc(N)cc3nc2c1,mutagenic call,"Test System: AMES SALMONELLA TYPHIMURIUM, Strain/Indicator: TA98, Metabolic Activation: HAMSTER, LIVER, S-9, AROCLOR 1254, Method: STANDARD PLATE",active; positive
same,mutagenic call,"Test System: AMES SALMONELLA TYPHIMURIUM, Strain/Indicator: TA98, Metabolic Activation: HAMSTER, LIVER, S-9, Method: STANDARD PLATE",active; positive
same,mutagenic call,"Test System: AMES SALMONELLA TYPHIMURIUM, Strain/Indicator: TA98, Metabolic Activation: MOUSE, LIVER, S-9, AROCLOR 1254, Method: STANDARD PLATE",active; positive
same,mutagenic call,"Test System: AMES SALMONELLA TYPHIMURIUM, Strain/Indicator: TA98, Metabolic Activation: MOUSE, LIVER, S-9, Method: STANDARD PLATE",active; positive
same,mutagenic call,"Test System: AMES SALMONELLA TYPHIMURIUM, Strain/Indicator: TA98, Metabolic Activation: NONE, Method: FLUCTUATION (MICROTITER)",active; positive
same,mutagenic call,"Test System: AMES SALMONELLA TYPHIMURIUM, Strain/Indicator: TA98, Metabolic Activation: RAT, LIVER, S-9, AROCLOR 1254, Method: STANDARD PLATE",active; positive
same,mutagenic call,"Test System: AMES SALMONELLA TYPHIMURIUM, Strain/Indicator: TA98, Metabolic Activation: RAT, LIVER, S-9, Method: STANDARD PLATE",active; positive
same,mutagenic call,"Test System: AMES SALMONELLA TYPHIMURIUM, Strain/Indicator: TA100, Metabolic Activation: NONE, Method: STANDARD PLATE",inactive; negative
same,mutagenic call,"Test System: AMES SALMONELLA TYPHIMURIUM, Strain/Indicator: TA100, Metabolic Activation: RAT, LIVER, S-9, AROCLOR 1254, Method: STANDARD PLATE",active; positive
same,mutagenic call,"Test System: AMES SALMONELLA TYPHIMURIUM, Strain/Indicator: TA100, Metabolic Activation: RAT, LIVER, S-9, Method: STANDARD PLATE",inactive; negative
same,mutagenic call,"Test System: AMES SALMONELLA TYPHIMURIUM, Strain/Indicator: TA1535, Metabolic Activation: MOUSE, LIVER, S-9, AROCLOR 1254, Method: STANDARD PLATE",inactive; negative
same,mutagenic call,"Test System: AMES SALMONELLA TYPHIMURIUM, Strain/Indicator: TA1535, Metabolic Activation: NONE, Method: PREINCUBATION",inactive; negative
same,mutagenic call,"Test System: AMES SALMONELLA TYPHIMURIUM, Strain/Indicator: TA1535, Metabolic Activation: NONE, Method: STANDARD PLATE",inactive; negative
same,mutagenic call,"Test System: AMES SALMONELLA TYPHIMURIUM, Strain/Indicator: TA1535, Metabolic Activation: RAT, LIVER, S-9, AROCLOR 1254, Method: STANDARD PLATE",inactive; negative
same,mutagenic call,"Test System: AMES SALMONELLA TYPHIMURIUM, Strain/Indicator: TA1535, Metabolic Activation: RAT, LIVER, S-9, TETRACHLOROBIPHENYL, Method: PREINCUBATION",inactive; negative
same,mutagenic call,"Test System: AMES SALMONELLA TYPHIMURIUM, Strain/Indicator: TA1535, Metabolic Activation: RAT, LIVER, S-9, Method: STANDARD PLATE",inactive; negative
same,mutagenic call,"Test System: AMES SALMONELLA TYPHIMURIUM, Strain/Indicator: TA1537, Metabolic Activation: HAMSTER, LIVER, S-9, AROCLOR 1254, Method: STANDARD PLATE",active; positive
same,mutagenic call,"Test System: AMES SALMONELLA TYPHIMURIUM, Strain/Indicator: TA1537, Metabolic Activation: HAMSTER, LIVER, S-9, Method: STANDARD PLATE",active; positive
same,mutagenic call,"Test System: AMES SALMONELLA TYPHIMURIUM, Strain/Indicator: TA1537, Metabolic Activation: MOUSE, LIVER, S-9, AROCLOR 1254, Method: STANDARD PLATE",active; positive
same,mutagenic call,"Test System: AMES SALMONELLA TYPHIMURIUM, Strain/Indicator: TA1537, Metabolic Activation: MOUSE, LIVER, S-9, Method: STANDARD PLATE",active; positive
same,mutagenic call,"Test System: AMES SALMONELLA TYPHIMURIUM, Strain/Indicator: TA1537, Metabolic Activation: NONE, Method: FLUCTUATION (MICROTITER)",active; positive
same,mutagenic call,"Test System: AMES SALMONELLA TYPHIMURIUM, Strain/Indicator: TA1537, Metabolic Activation: NONE, Method: PREINCUBATION",active; positive
same,mutagenic call,"Test System: AMES SALMONELLA TYPHIMURIUM, Strain/Indicator: TA1537, Metabolic Activation: RAT, LIVER, S-9, AROCLOR 1254, Method: STANDARD PLATE",active; positive
same,mutagenic call,"Test System: AMES SALMONELLA TYPHIMURIUM, Strain/Indicator: TA1537, Metabolic Activation: RAT, LIVER, S-9, TETRACHLOROBIPHENYL, Method: PREINCUBATION",active; positive
same,mutagenic call,"Test System: AMES SALMONELLA TYPHIMURIUM, Strain/Indicator: TA1537, Metabolic Activation: RAT, LIVER, S-9, Method: STANDARD PLATE",active; positive
same,mutagenic call,"Test System: AMES SALMONELLA TYPHIMURIUM, Strain/Indicator: TA1538, Metabolic Activation: HAMSTER, LIVER, S-9, AROCLOR 1254, Method: STANDARD PLATE",active; positive
same,mutagenic call,"Test System: AMES SALMONELLA TYPHIMURIUM, Strain/Indicator: TA1538, Metabolic Activation: HAMSTER, LIVER, S-9, Method: STANDARD PLATE",active; positive
same,mutagenic call,"Test System: AMES SALMONELLA TYPHIMURIUM, Strain/Indicator: TA1538, Metabolic Activation: MOUSE, LIVER, S-9, AROCLOR 1254, Method: STANDARD PLATE",active; positive
same,mutagenic call,"Test System: AMES SALMONELLA TYPHIMURIUM, Strain/Indicator: TA1538, Metabolic Activation: MOUSE, LIVER, S-9, Method: STANDARD PLATE",active; positive
same,mutagenic call,"Test System: AMES SALMONELLA TYPHIMURIUM, Strain/Indicator: TA1538, Metabolic Activation: NONE, Method: PREINCUBATION",inactive; negative
same,mutagenic call,"Test System: AMES SALMONELLA TYPHIMURIUM, Strain/Indicator: TA1538, Metabolic Activation: RAT, LIVER, S-9, AROCLOR 1254, Method: STANDARD PLATE",active; positive
same,mutagenic call,"Test System: AMES SALMONELLA TYPHIMURIUM, Strain/Indicator: TA1538, Metabolic Activation: RAT, LIVER, S-9, TETRACHLOROBIPHENYL, Method: PREINCUBATION",active; positive
same,mutagenic call,"Test System: AMES SALMONELLA TYPHIMURIUM, Strain/Indicator: TA1538, Metabolic Activation: RAT, LIVER, S-9, Method: STANDARD PLATE",active; positive
same,mutagenic call,"Test System: AMES SALMONELLA TYPHIMURIUM, Strain/Indicator: TA1977, Metabolic Activation: NONE, Method: PREINCUBATION",active; positive
same,mutagenic call,"Test System: AMES SALMONELLA TYPHIMURIUM, Strain/Indicator: TA1977, Metabolic Activation: RAT, LIVER, S-9, TETRACHLOROBIPHENYL, Method: PREINCUBATION",active; positive
same,mutagenic call,"Test System: AMES SALMONELLA TYPHIMURIUM, Strain/Indicator: TA1978, Metabolic Activation: RAT, LIVER, S-9, TETRACHLOROBIPHENYL, Method: PREINCUBATION",active; positive
same,mutagenic call,"Test System: AMES SALMONELLA TYPHIMURIUM, Strain/Indicator: TA7001, Metabolic Activation: NONE, Method: FLUCTUATION (MICROTITER)",inactive; negative
same,mutagenic call,"Test System: AMES SALMONELLA TYPHIMURIUM, Strain/Indicator: TA7002, Metabolic Activation: NONE, Method: FLUCTUATION (MICROTITER)",inactive; negative
same,mutagenic call,"Test System: AMES SALMONELLA TYPHIMURIUM, Strain/Indicator: TA7003, Metabolic Activation: NONE, Method: FLUCTUATION (MICROTITER)",inactive; negative
same,mutagenic call,"Test System: AMES SALMONELLA TYPHIMURIUM, Strain/Indicator: TA7004, Metabolic Activation: NONE, Method: FLUCTUATION (MICROTITER)",inactive; negative
same,mutagenic call,"Test System: AMES SALMONELLA TYPHIMURIUM, Strain/Indicator: TA7005, Metabolic Activation: NONE, Method: FLUCTUATION (MICROTITER)",active; positive
same,mutagenic call,"Test System: AMES SALMONELLA TYPHIMURIUM, Strain/Indicator: TA7006, Metabolic Activation: NONE, Method: FLUCTUATION (MICROTITER)",inactive; negative
same,mutagenic call,"Test System: CHINESE HAMSTER OVARY, Strain/Indicator: CHO-K1-BH4 (HGPRT)/6-THIOGUANINE, Metabolic Activation: NONE, Method: SUSPENSION/PLATE",active; positive
same,mutagenic call,"Test System: CHINESE HAMSTER V-79, Strain/Indicator: V-79/6-THIOGUANINE, Metabolic Activation: NONE, Method: FLASK ASSAY",active; positive
same,mutagenic call,"Test System: E. COLI, Strain/Indicator: WP2 UVRA, Metabolic Activation: HAMSTER, LIVER, S-9, AROCLOR 1254, Method: STANDARD PLATE",inactive; negative
same,mutagenic call,"Test System: E. COLI, Strain/Indicator: WP2 UVRA, Metabolic Activation: HAMSTER, LIVER, S-9, Method: STANDARD PLATE",inactive; negative
same,mutagenic call,"Test System: E. COLI, Strain/Indicator: WP2 UVRA, Metabolic Activation: MOUSE, LIVER, S-9, Method: STANDARD PLATE",inactive; negative
same,mutagenic call,"Test System: E. COLI, Strain/Indicator: WP2 UVRA, Metabolic Activation: NONE, Method: STANDARD PLATE",inactive; negative
same,mutagenic call,"Test System: MOUSE LYMPHOMA, Strain/Indicator: L5178Y (TK+/TK-), Metabolic Activation: NONE, Method: SUSPENSION/PLATE",active; positive
